# From patent US6452009B1, “4-unsubstituted dihydroisoquinolinone derivatives and combinatorial libraries thereof” (Lion Bioscience AG, priority 1999, dated 2002)
# Tested on: Streptococcus pyogenes (ATCC #97-03 14289)
# Assay: Anti-microbial screen (growth inhibition, OD 570 nm)
# Format: cell-based
# Settings: ATCC97, 4 h
# Method: Streptococcus pyogenes (ATCC #97-03 14289) are grown in Todd Hewitt Broth (THB) (Difco Laboratories #0492-17-6) overnight until they reach an optical density of (OD=0.636@570 nm) by reading 0.1 ml in a 96 well microtiter plate in a Molecular Devices Thermomax. This preparation is kept frozen as stocks in 30% v/v glycerol in 1.5 ml aliquots at −70° C. until use. Prior to screening, 1.5 ml aliquots are thawed and diluted into 50 ml THB. 200 μl of this dilution is added to 92 wells of microtiter plate. To three wells THB (200 μl) is added to serve as a blank and a sterility control. Test compounds in DMSO and appropriate concentrations of DMSO are added to Growth/Solvent Controls at 0 time. Plates are read at 0 time at 570 nm in the Molecular Devices plate reader to obtain compounds correction factors for insoluble or colored compounds. Plates are read again at 4 hrs.
# Compounds are assayed at a concentration of 170 μg/ml. Percent inhibition for each compound is calculated using the following formulae:
# Color correct=(O.D. 0 hr −Blank 0 hr)—(Solvent Control 0 hr−Blank 0 hr)
# % Inhibition=100−(O.D. test compound 4 hr−Blank 4 hr−color correct) divided by (O.D. growth/solvent control 4 hr−Blank 4 hr)
row,Compound,inhibition at 170 µg/mL
1,CCOP(=O)(CC(=O)Nc1ccc2c(c1)C(=O)N(CCC(=O)N(CCN(C)C)CC(N)=O)C(c1ccc(C(F)(F)F)cc1)C2)OCC (centres unmarked),98.9%

# Same assay, conditions: ATCC97, compounds assayed at 170 μg/ml, growth in Todd Hewitt Broth read at 570 nm at 4 hrs, read-out: % Inhibition
row,Compound,inhibition at 170 µg/mL
1,CN(C)CCN(CC(N)=O)C(=O)CCN1C(=O)c2cc(NC(=O)c3cccc(C(F)(F)F)c3F)ccc2CC1c1ccc(C(F)(F)F)cc1 (centres unmarked),99.9%
2,CCCCCCCC(=O)Nc1ccc2c(c1)C(=O)N(CCC(=O)N(CC(N)=O)Cc1cccc(C(F)(F)F)c1)C(c1ccc(OCCCN(C)C)cc1)C2 (centres unmarked),98.5%
3,CN(C)CCCOc1ccc(C2Cc3ccc(NC(=O)CC4CC5CCC4C5)cc3C(=O)N2Cc2ccc(C(=O)N(CC(N)=O)Cc3ccccc3)cc2)cc1 (centres unmarked),98.2%
4,CN(C)CCN(CC(N)=O)C(=O)c1ccc(CN2C(=O)c3cc(NC(=O)c4c(F)cccc4F)ccc3CC2c2ccc(C(C)(C)C)cc2)cc1 (centres unmarked),99%
5,CN(C)CCN(CC(N)=O)C(=O)CCN1C(=O)c2cc(NC(=O)c3ccc(F)c(F)c3)ccc2CC1c1ccc(C(C)(C)C)cc1 (centres unmarked),98.7%
6,CN(C)CCN(CC(N)=O)C(=O)CCN1C(=O)c2cc(NC(=O)CC3CC4CCC3C4)ccc2CC1c1ccc(C(F)(F)F)cc1 (centres unmarked),99.2%
7,NC(=O)CN(Cc1ccccc1)C(=O)CCN1C(=O)c2cc(NC(=O)CCC3CCCC3)ccc2CC1c1cccc2ccccc12 (centres unmarked),98.4%
8,CN(C)CCN(CC(N)=O)C(=O)CCN1C(=O)c2cc(NC(=O)c3cc(C(F)(F)F)cc(C(F)(F)F)c3)ccc2CC1c1ccc2ccccc2n1 (centres unmarked),98.2%
9,CCCCCC/C=C/C(=O)Nc1ccc2c(c1)C(=O)N(CCC(=O)N(CCN(C)C)CC(N)=O)C(c1ncc[nH]1)C2 (centres unmarked),99.4%
10,CN(C)CCN(CC(N)=O)C(=O)c1ccc(CN2C(=O)c3cc(NC(=O)c4ccc(OC(F)(F)F)cc4)ccc3CC2c2cccc(C#N)c2)cc1 (centres unmarked),99.5%
11,CN(C)CCN(CC(N)=O)C(=O)c1ccc(CN2C(=O)c3cc(NC(=O)/C=C/c4ccccc4C(F)(F)F)ccc3CC2c2ccc(F)c(F)c2)cc1 (centres unmarked),98.4%
12,CN(C)CCN(CC(N)=O)C(=O)CCN1C(=O)c2cc(NC(=O)c3cccc(C(F)(F)F)c3F)ccc2CC1c1ccccc1 (centres unmarked),99.2%
13,CN(C)CCN(CC(N)=O)C(=O)CCN1C(=O)c2cc(NC(=O)c3ccc(I)cc3)ccc2CC1c1ccc2ccccc2n1 (centres unmarked),99.5%
14,CCCN(CC(N)=O)C(=O)c1ccc(CN2C(=O)c3cc(NC(=O)c4ccc(OC(F)(F)F)cc4)ccc3CC2c2ccc(OCCCN(C)C)cc2)cc1 (centres unmarked),99.7%
15,CN(C)CCN(CC(N)=O)C(=O)c1ccc(CN2C(=O)c3cc(NC(=O)c4cccc(C(F)(F)F)c4F)ccc3CC2c2cccc(C#N)c2)cc1 (centres unmarked),99.5%
16,CN(C)CCN(CC(N)=O)C(=O)c1ccc(CN2C(=O)c3cc(NC(=O)c4cc(C(F)(F)F)cc(C(F)(F)F)c4)ccc3CC2c2ncc[nH]2)cc1 (centres unmarked),98.7%
17,Cc1ccc2oc(C(=O)Nc3ccc4c(c3)C(=O)N(CCC(=O)N(CC(N)=O)Cc3cccc(C(F)(F)F)c3)C(c3ccc(F)c(F)c3)C4)cc(=O)c2c1 (centres unmarked),99.2%
18,COc1cc(OC)cc(C2Cc3ccc(NC(=O)CC(C)CC(C)(C)C)cc3C(=O)N2CCC(=O)N(CCN(C)C)CC(N)=O)c1 (centres unmarked),99%
19,CCCCCC/C=C/C(=O)Nc1ccc2c(c1)C(=O)N(Cc1ccc(C(=O)N(CCOC)CC(N)=O)cc1)C(c1ccc(C(C)(C)C)cc1)C2 (centres unmarked),98.2%
20,CN(C)CCCOc1ccc(C2Cc3ccc(NC(=O)CCC4CCCCC4)cc3C(=O)N2CCC(=O)N(CCN(C)C)CC(N)=O)cc1 (centres unmarked),99%

row,Compound,inhibition at 170 µg/mL
1,CN(C)CCN(CC(N)=O)C(=O)CCN1C(=O)c2cc(NC(=O)C3(c4ccccc4)CC3)ccc2CC1c1cccc2ccccc12 (centres unmarked),99%
2,Cc1ccc(C2Cc3ccc(NC(=O)COc4ccc5ccccc5c4)cc3C(=O)N2CCC(=O)N(CCN(C)C)CC(N)=O)cc1 (centres unmarked),99.2%
3,CN(C)CCN(CC(N)=O)C(=O)CCN1C(=O)c2cc(NC(=O)c3ccc(I)cc3)ccc2CC1c1ccccn1 (centres unmarked),99.2%
4,CN(C)CCN(CC(N)=O)C(=O)CCN1C(=O)c2cc(NC(=O)CC3CC4CCC3C4)ccc2CC1c1ccc2ccccc2n1 (centres unmarked),98.5%
5,CN(C)CCN(CC(N)=O)C(=O)CCN1C(=O)c2cc(NC(=O)c3cc(C(F)(F)F)cc(C(F)(F)F)c3)ccc2CC1c1ccc(F)c(F)c1 (centres unmarked),99.2%
6,CN(C)CCCOc1ccc(C2Cc3ccc(NC(=O)CC4CCCC4)cc3C(=O)N2Cc2ccc(C(=O)N(CC(N)=O)Cc3ccccc3)cc2)cc1 (centres unmarked),99.2%
7,COc1cc(OC)cc(C2Cc3ccc(NC(=O)CCC4CCCC4)cc3C(=O)N2CCC(=O)N(CCN(C)C)CC(N)=O)c1 (centres unmarked),99.5%
8,CN(C)CCN(CC(N)=O)C(=O)CCN1C(=O)c2cc(NC(=O)c3ccc(C#N)cc3)ccc2CC1c1ccc(C(C)(C)C)cc1 (centres unmarked),98.5%
9,CC1CCC(C(=O)Nc2ccc3c(c2)C(=O)N(Cc2ccc(C(=O)N(CCN(C)C)CC(N)=O)cc2)C(c2cccc(C#N)c2)C3)CC1 (centres unmarked),98.5%
10,COc1cc(OC)cc(C2Cc3ccc(NC(=O)c4c(F)c(F)c(C)c(F)c4F)cc3C(=O)N2CCC(=O)N(CCN(C)C)CC(N)=O)c1 (centres unmarked),98.2%
11,CCCC(CCC)C(=O)Nc1ccc2c(c1)C(=O)N(CCC(=O)N(CCN(C)C)CC(N)=O)C(c1cc(OC)cc(OC)c1)C2 (centres unmarked),98.2%
12,CN(C)CCN(CC(N)=O)C(=O)CCN1C(=O)c2cc(NC(=O)CC3CC4CCC3C4)ccc2CC1c1ccc(F)c(F)c1 (centres unmarked),98.4%
13,CCCCCCCC(=O)Nc1ccc2c(c1)C(=O)N(CCC(=O)N(CCN(C)C)CC(N)=O)C(c1ccc(F)c(F)c1)C2 (centres unmarked),98.4%
14,CN(C)CCN(CC(N)=O)C(=O)c1ccc(CN2C(=O)c3cc(NC(=O)c4ccc(OC(F)(F)F)cc4)ccc3CC2c2ccccn2)cc1 (centres unmarked),99.5%
15,CCCCCCCC(=O)Nc1ccc2c(c1)C(=O)N(CCC(=O)N(CCN(C)C)CC(N)=O)C(c1ccc(C)cc1)C2 (centres unmarked),99.9%
16,CC(CC(=O)Nc1ccc2c(c1)C(=O)N(Cc1ccc(C(=O)N(CCN(C)C)CC(N)=O)cc1)C(c1ccc(C(F)(F)F)cc1)C2)CC(C)(C)C (centres unmarked),98.7%
17,NC(=O)CN(Cc1cccc(C(F)(F)F)c1)C(=O)CCN1C(=O)c2cc(NC(=O)CC3CC4CCC3C4)ccc2CC1c1cccnc1 (centres unmarked),99.2%
18,CC1CCC(C(=O)Nc2ccc3c(c2)C(=O)N(CCC(=O)N(CCN(C)C)CC(N)=O)C(c2ccc(OCCCN(C)C)cc2)C3)CC1 (centres unmarked),99%
19,COc1cc(OC)cc(C2Cc3ccc(NC(=O)C(=O)c4c(C)cc(C)cc4C)cc3C(=O)N2CCC(=O)N(CCN(C)C)CC(N)=O)c1 (centres unmarked),99.5%
20,CSc1ccc(C2Cc3ccc(NC(=O)CC(C)CC(C)(C)C)cc3C(=O)N2Cc2ccc(C(=O)N(CCN(C)C)CC(N)=O)cc2)cc1 (centres unmarked),99.5%
